Measurements reported in patent US10004701B2, “Methods and compositions for treating infection” (UNIVERSITY OF ROCHESTER, priority 2012, dated 2018).
Counter-ions that a name gives are not always drawn. Like-named read-outs stand apart in the source and are kept apart here.

How the values were obtained:
Assay in all cases: AK assay 384-well format, Prestwick library screening
[1] = tested on: E. faecium; type: cell-based, Enterococcus faecium; details: Enterococcus faecium, 3 h
[2] = tested on: S. aureus strain USA300-0114; type: cell-based, Staphylococcus aureus; details: Staphylococcus aureus, USA300, 3 h
[3] = tested on: K. pneumoniae; type: cell-based, Klebsiella pneumoniae; details: Klebsiella pneumoniae, 3 h
[4] = tested on: A. baumannii strain 98-37-09; type: cell-based, Acinetobacter baumannii; details: Acinetobacter baumannii, 983709, 3 h
[5] = tested on: P. aeruginosa; type: cell-based, Pseudomonas aeruginosa; details: Pseudomonas aeruginosa, 3 h
[6] = tested on: E. cloacae; type: cell-based, Enterobacter cloacae; details: Enterobacter cloacae, 3 h
[7] = tested on: E. coli; type: cell-based, Escherichia coli; details: Escherichia coli, 3 h
[8] = planktonic E. faecium, 50 μM final drug concentration, cutoff for positive-scoring molecules 3-fold increase, read-out: AK-based Prestwick Library Screening Results, E. faecium (increase in extracellular AK activity)
[9] = planktonic S. aureus, 50 μM final drug concentration, cutoff for positive-scoring molecules 3-fold increase, read-out: AK-based Prestwick Library Screening Results, S. aureus (increase in extracellular AK activity)
[10] = planktonic K. pneumoniae, 50 μM final drug concentration, cutoff for positive-scoring molecules 3-fold increase, read-out: AK-based Prestwick Library Screening Results, K. pneumoniae (increase in extracellular AK activity)
[11] = planktonic A. baumannii, 50 μM final drug concentration, cutoff for positive-scoring molecules 3-fold increase, read-out: AK-based Prestwick Library Screening Results, A. baumannii (increase in extracellular AK activity)
[12] = planktonic P. aeruginosa, 50 μM final drug concentration, cutoff for positive-scoring molecules 3-fold increase, read-out: AK-based Prestwick Library Screening Results, P. aeruginosa (increase in extracellular AK activity)
[13] = planktonic E. cloacae, 50 μM final drug concentration, cutoff for positive-scoring molecules 3-fold increase, read-out: AK-based Prestwick Library Screening Results, E. cloacae (increase in extracellular AK activity)
[14] = planktonic E. coli, 50 μM final drug concentration, cutoff for positive-scoring molecules 3-fold increase, read-out: AK-based Prestwick Library Screening Results, E. coli (increase in extracellular AK activity)
[15] = 50 μM final drug concentration, 384-well format, cutoff for positive-scoring molecules 3-fold increase, read-out: AK-based Prestwick Library Screening Results, E. faecium (increase in extracellular AK activity)
[16] = 50 μM final drug concentration, 384-well format, cutoff for positive-scoring molecules 3-fold increase, read-out: AK-based Prestwick Library Screening Results, S. aureus (increase in extracellular AK activity)
[17] = 50 μM final drug concentration, 384-well format, cutoff for positive-scoring molecules 3-fold increase, read-out: AK-based Prestwick Library Screening Results, K. pneumoniae (increase in extracellular AK activity)
[18] = 50 μM final drug concentration, 384-well format, cutoff for positive-scoring molecules 3-fold increase, read-out: AK-based Prestwick Library Screening Results, A. baumannii (increase in extracellular AK activity)
[19] = 50 μM final drug concentration, 384-well format, cutoff for positive-scoring molecules 3-fold increase, read-out: AK-based Prestwick Library Screening Results, P. aeruginosa (increase in extracellular AK activity)
[20] = 50 μM final drug concentration, 384-well format, cutoff for positive-scoring molecules 3-fold increase, read-out: AK-based Prestwick Library Screening Results, E. cloacae (increase in extracellular AK activity)
[21] = 50 μM final drug concentration, 384-well format, cutoff for positive-scoring molecules 3-fold increase, read-out: AK-based Prestwick Library Screening Results, E. coli (increase in extracellular AK activity)

## C[C@@H]1CCC[C@H](C)N1NC(=O)c1ccc(Cl)c(S(N)(=O)=O)c1 [Clopamide]
[1]; [8]
  fold induction at 50 µM: 0.9
[2]; [9]
  fold induction at 50 µM: 0.7
[3]; [10]
  fold induction at 50 µM: 0.7
[4]; [11]
  fold induction at 50 µM: 0.8
[5]; [12]
  fold induction at 50 µM: 0.8
[6]; [13]
  fold induction at 50 µM: 1
[7]; [14]
  fold induction at 50 µM: 0.8

## Clc1ccc(C(OCCN2CCCCC2)c2ccccc2)cc1 (stereo not shown) [Cloperastine hydrochloride]
[1]; 50 μM final drug concentration, cutoff for positive-scoring molecules 3-fold increase, read-out: AK-based Prestwick Library Screening Results, E. faecium (fold increase in extracellular AK activity)
  fold induction at 50 µM: 1.1
[2]; 50 μM final drug concentration, cutoff for positive-scoring molecules 3-fold increase, read-out: AK-based Prestwick Library Screening Results, S. aureus (fold increase in extracellular AK activity)
  fold induction at 50 µM: 1.3
[3]; 50 μM final drug concentration, cutoff for positive-scoring molecules 3-fold increase, read-out: AK-based Prestwick Library Screening Results, K. pneumoniae (fold increase in extracellular AK activity)
  fold induction at 50 µM: 1.2
[4]; 50 μM final drug concentration, cutoff for positive-scoring molecules 3-fold increase, read-out: AK-based Prestwick Library Screening Results, A. baumannii (fold increase in extracellular AK activity)
  fold induction at 50 µM: 1.4
[5]; 50 μM final drug concentration, cutoff for positive-scoring molecules 3-fold increase, read-out: AK-based Prestwick Library Screening Results, P. aeruginosa (fold increase in extracellular AK activity)
  fold induction at 50 µM: 1.2
[6]; 50 μM final drug concentration, cutoff for positive-scoring molecules 3-fold increase, read-out: AK-based Prestwick Library Screening Results, E. cloacae (fold increase in extracellular AK activity)
  fold induction at 50 µM: 2
[7]; 50 μM final drug concentration, cutoff for positive-scoring molecules 3-fold increase, read-out: AK-based Prestwick Library Screening Results, E. coli (fold increase in extracellular AK activity)
  fold induction at 50 µM: 1.2

## C#CCN(C)CCCOc1ccc(Cl)cc1Cl [Clorgyline hydrochloride]
[1]; [8]
  fold induction at 50 µM: 0.7
[2]; [9]
  fold induction at 50 µM: 0.5
[3]; [10]
  fold induction at 50 µM: 0.5
[4]; [11]
  fold induction at 50 µM: 0.6
[5]; [12]
  fold induction at 50 µM: 0.7
[6]; [13]
  fold induction at 50 µM: 0.8
[7]; [14]
  fold induction at 50 µM: 0.7

## Nc1cc(C(Cl)=C(Cl)Cl)c(S(N)(=O)=O)cc1S(N)(=O)=O [Clorsulon]
[1]; 50 μM final drug concentration, planktonic, cutoff for positive 3-fold increase, read-out: AK-based Prestwick Library Screening Results, E. faecium (fold increase in extracellular AK activity)
  fold induction at 50 µM: 1.4
[2]; 50 μM final drug concentration, planktonic, cutoff for positive 3-fold increase, read-out: AK-based Prestwick Library Screening Results, S. aureus (fold increase in extracellular AK activity)
  fold induction at 50 µM: 1.5
[3]; 50 μM final drug concentration, planktonic, cutoff for positive 3-fold increase, read-out: AK-based Prestwick Library Screening Results, K. pneumoniae (fold increase in extracellular AK activity)
  fold induction at 50 µM: 1
[4]; 50 μM final drug concentration, planktonic, cutoff for positive 3-fold increase, read-out: AK-based Prestwick Library Screening Results, A. baumannii (fold increase in extracellular AK activity)
  fold induction at 50 µM: 1
[5]; 50 μM final drug concentration, planktonic, cutoff for positive 3-fold increase, read-out: AK-based Prestwick Library Screening Results, P. aeruginosa (fold increase in extracellular AK activity)
  fold induction at 50 µM: 1.1
[6]; 50 μM final drug concentration, planktonic, cutoff for positive 3-fold increase, read-out: AK-based Prestwick Library Screening Results, E. cloacae (fold increase in extracellular AK activity)
  fold induction at 50 µM: 1.7
[7]; 50 μM final drug concentration, planktonic, cutoff for positive 3-fold increase, read-out: AK-based Prestwick Library Screening Results, E. coli (fold increase in extracellular AK activity)
  fold induction at 50 µM: 1

## Clc1ccccc1C(c1ccccc1)(c1ccccc1)n1ccnc1 [Clotrimazole]
[1]; [15]
  fold induction at 50 µM: 1.3
[2]; [16]
  fold induction at 50 µM: 2
[3]; [17]
  fold induction at 50 µM: 1
[4]; [18]
  fold induction at 50 µM: 3.3
[5]; [19]
  fold induction at 50 µM: 1
[6]; [20]
  fold induction at 50 µM: 1
[7]; [21]
  fold induction at 50 µM: 1

## Cc1onc(-c2ccccc2Cl)c1C(=O)N[C@@H]1C(=O)N2[C@@H]1SC(C)(C)[C@@H]2C(=O)O [Cloxacillin sodium salt]
[1]; [15]
  fold induction at 50 µM: 1
[2]; [16]
  fold induction at 50 µM: 5.3
[3]; [17]
  fold induction at 50 µM: 0.7
[4]; [18]
  fold induction at 50 µM: 1.3
[5]; [19]
  fold induction at 50 µM: 1
[6]; [20]
  fold induction at 50 µM: 1
[7]; [21]
  fold induction at 50 µM: 1

## CN1CCN(C2=Nc3cc(Cl)ccc3Nc3ccccc32)CC1 [Clozapine]
[1]; [8]
  fold induction at 50 µM: 0.9
[2]; [9]
  fold induction at 50 µM: 0.7
[3]; [10]
  fold induction at 50 µM: 0.8
[4]; [11]
  fold induction at 50 µM: 0.9
[5]; [12]
  fold induction at 50 µM: 1
[6]; [13]
  fold induction at 50 µM: 1
[7]; [14]
  fold induction at 50 µM: 0.9

## COc1cc2c(c(OC)c1OC)-c1ccc(OC)c(=O)cc1[C@@H](NC(C)=O)CC2 [Colchicine]
[1]; read-out: AK-based Prestwick Library Screening Results, E. faecium (increase in extracellular AK activity)
  fold induction at 50 µM: 1
[2]; read-out: AK-based Prestwick Library Screening Results, S. aureus (increase in extracellular AK activity)
  fold induction at 50 µM: 1
[3]; read-out: AK-based Prestwick Library Screening Results, K. pneumoniae (increase in extracellular AK activity)
  fold induction at 50 µM: 0.9
[4]; read-out: AK-based Prestwick Library Screening Results, A. baumannii (increase in extracellular AK activity)
  fold induction at 50 µM: 1
[5]; read-out: AK-based Prestwick Library Screening Results, P. aeruginosa (increase in extracellular AK activity)
  fold induction at 50 µM: 1
[6]; read-out: AK-based Prestwick Library Screening Results, E. cloacae (increase in extracellular AK activity)
  fold induction at 50 µM: 1.1
[7]; read-out: AK-based Prestwick Library Screening Results, E. coli (increase in extracellular AK activity)
  fold induction at 50 µM: 1.2

## Nc1ccccc1S(N)(=O)=O [Compound 2-Aminobenzenesulfonamide, 2-Aminobenzenesulfonamide]
[1]; 50 μM final drug concentration, planktonic, cutoff for positive-scoring molecules 3-fold increase, read-out: AK-based Prestwick Library Screening Results, E. faecium (fold increase in extracellular AK activity)
  fold induction at 50 µM: 0.9
[2]; 50 μM final drug concentration, planktonic, cutoff for positive-scoring molecules 3-fold increase, read-out: AK-based Prestwick Library Screening Results, S. aureus (fold increase in extracellular AK activity)
  fold induction at 50 µM: 0.8
[3]; 50 μM final drug concentration, planktonic, cutoff for positive-scoring molecules 3-fold increase, read-out: AK-based Prestwick Library Screening Results, K. pneumoniae (fold increase in extracellular AK activity)
  fold induction at 50 µM: 0.7
[4]; 50 μM final drug concentration, planktonic, cutoff for positive-scoring molecules 3-fold increase, read-out: AK-based Prestwick Library Screening Results, A. baumannii (fold increase in extracellular AK activity)
  fold induction at 50 µM: 0.9
[5]; 50 μM final drug concentration, planktonic, cutoff for positive-scoring molecules 3-fold increase, read-out: AK-based Prestwick Library Screening Results, P. aeruginosa (fold increase in extracellular AK activity)
  fold induction at 50 µM: 0.9
[6]; 50 μM final drug concentration, planktonic, cutoff for positive-scoring molecules 3-fold increase, read-out: AK-based Prestwick Library Screening Results, E. cloacae (fold increase in extracellular AK activity)
  fold induction at 50 µM: 1.4
[7]; 50 μM final drug concentration, planktonic, cutoff for positive-scoring molecules 3-fold increase, read-out: AK-based Prestwick Library Screening Results, E. coli (fold increase in extracellular AK activity)
  fold induction at 50 µM: 1.1

## Clc1cnccn1 [Compound 2-Chloropyrazine, 2-Chloropyrazine]
[1]; planktonic E. faecium, 50 μM final drug concentration, positive cutoff 3-fold increase, read-out: AK-based Prestwick library screening result, E. faecium (fold increase in extracellular AK activity)
  fold induction at 50 µM: 1.1
[2]; planktonic S. aureus, 50 μM final drug concentration, positive cutoff 3-fold increase, read-out: AK-based Prestwick library screening result, S. aureus (fold increase in extracellular AK activity)
  fold induction at 50 µM: 1.1
[3]; planktonic K. pneumoniae, 50 μM final drug concentration, positive cutoff 3-fold increase, read-out: AK-based Prestwick library screening result, K. pneumoniae (fold increase in extracellular AK activity)
  fold induction at 50 µM: 0.9
[4]; planktonic A. baumannii, 50 μM final drug concentration, positive cutoff 3-fold increase, read-out: AK-based Prestwick library screening result, A. baumannii (fold increase in extracellular AK activity)
  fold induction at 50 µM: 1.2
[5]; planktonic P. aeruginosa, 50 μM final drug concentration, positive cutoff 3-fold increase, read-out: AK-based Prestwick library screening result, P. aeruginosa (fold increase in extracellular AK activity)
  fold induction at 50 µM: 1
[6]; planktonic E. cloacae, 50 μM final drug concentration, positive cutoff 3-fold increase, read-out: AK-based Prestwick library screening result, E. cloacae (fold increase in extracellular AK activity)
  fold induction at 50 µM: 1.4
[7]; planktonic E. coli, 50 μM final drug concentration, positive cutoff 3-fold increase, read-out: AK-based Prestwick library screening result, E. coli (fold increase in extracellular AK activity)
  fold induction at 50 µM: 1
